We go through 23 molecules from US9156796B2, “Benzoimidazole-carboxylic acid amide derivatives as APJ receptor modulators” (SANOFI, priority 2013, dated 2015).

This assay has as its target T1, human apelin receptor (Homo sapiens, UniProt P35414).
T1 construct: expressed in transfected cells
T1 sequence (P35414 1-380): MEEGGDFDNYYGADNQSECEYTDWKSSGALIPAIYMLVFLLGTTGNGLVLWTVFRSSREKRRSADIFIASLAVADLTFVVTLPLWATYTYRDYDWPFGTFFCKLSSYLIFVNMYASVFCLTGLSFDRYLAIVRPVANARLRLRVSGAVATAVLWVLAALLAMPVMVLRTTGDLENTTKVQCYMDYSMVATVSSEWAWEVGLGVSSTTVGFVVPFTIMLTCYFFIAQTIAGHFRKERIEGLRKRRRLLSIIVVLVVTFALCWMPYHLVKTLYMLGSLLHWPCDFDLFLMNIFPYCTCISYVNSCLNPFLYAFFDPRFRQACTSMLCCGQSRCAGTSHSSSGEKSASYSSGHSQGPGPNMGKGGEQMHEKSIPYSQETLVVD
The experiment in a line: Determination of agonism on the human apelin receptor by a calcium fluorescence assay (FLIPR). The conditions noted are these: HEK293 cells stably transfected with human apelin receptor and Giaq protein, Fluo-4 calcium fluorescence, read-out: EC50 (APJ agonism). In kind it is cell-based. The text has this: Determination of Agonism on the Human Apelin Receptor by a Calcium Fluorescence Assay (FLIPR)
The assay is based on the detection of intracellular calcium changes detected by the selective, calcium-chelating dye Fluo-4 (Molecular Probes). A large fluorescence intensity increase is observed upon calcium association with Fluo-4. The dye is delivered to the cell interior using an acetoxymethylester form of Fluo-4, where the intracellular esterase activity results in the charged species being released and trapped within the cytoplasm of the cell. […] By co-expressing the human apelin receptor and a promiscuous Giaq protein, agonism of the apelin receptor couples to phospholipase-C resulting in intracellular calcium mobilization.
The HEK293 cells were stably transfected with the human apelin receptor and the Giaq protein. Cells were selected and maintained in a log phase of growth at 37° and 5% CO2 in the Iscove's minimal essential medium, 10% fetal calf serum, 1× Penicillin-Streptomycin, 400 μg/mL G418. One day prior the assay, cells were passaged by accutase and plated at a density of 50,000 cells/well onto a 96-well plates with black border but clear bottom (Costar, cat#3904) in a final volume of 200 μl growth medium.
In order to load the cells the next day with the calcium-sensitive dye, growth medium was carefully replaced by dye solution (100 μl/well) containing Fluo-4 (4 μM) in basic measurement buffer (135 mM NaCl, 5 mM KCl, 1 mM magnesium sulphate, 5 mM glucose, 20 mM Hepes, 2.5 mM probenecid; adjusted to pH 7.4). Cells were incubated for 1 h at 37° C., and then washed 3× with buffer containing no dye. The washer was programmed to leave a remaining volume of 150 μl after the third wash in the plate.
During the dye-loading of the cells, a serial compound dilution was performed in a separate 96-well plate with overall 4× increased concentrations. Small aliquots of DMSO stock solutions of the compounds (10 mM in 100% DMSO were aliquoted into 150 μl buffer in the first rows of the 96-well plates, and then serially diluted by a factor of 1:3 transferring each time 30 μl to the next rows already containing 60 μl buffer. All compounds were tested in a least 7 concentrations, each condition was performed in triplicates. As comparator, we used freshly prepared apelin-13 solutions, for which also a concentration-response curve was determined at each measurement day. The compound plate was incubated for 10 min after the final dilutions steps at 37° C. before transferring the dye-loaded cell plate and the compound plate into a FLIPR Tetra reader (Molecular Devices). Measurement within this reader started by pipetting the agonist solution (50 μl) on the cell plate. Overall perform 60 reads were performed with an interval of 2 sec. The maximum of the fluorescence transient was used to calculate the agonistic response of the cells. In order to normalize this response, which may vary from plate to plate we set the maximum fluorescence achieved by 1 μM apelin-13 on this plate as 100%.
EC-50 values for apelin-13 and the apelin receptor compounds described in this patent were determined by standard algorithms using a specific software package.
Take `CCC(CC)n1c(Cc2cccs2)nc2cc(C(=O)N[C@@H](CC(C)C)C(=O)NCCCN3CCC(C)CC3)ccc21` [Example 320, 1-(1-Ethyl-propyl)-2-thiophen-2-ylmethyl-1H-benzoimidazole-5-carboxylic acid {(S)-3-methyl-1-[3-(4-methyl-piperidin-1-yl)-propylcarbamoyl]-butyl}-amide]: the concentration giving a half-maximal response (EC50) (as a rule, the midpoint of the concentration-response curve) was found to be 386 nM.
Next, `CCC(CC)n1c(Cc2cccs2)nc2cc(C(=O)NC(CC3CCCCCC3)C(=O)O)ccc21` (centres unmarked) [Example 39, 3-Cycloheptyl-2-{[1-(1-ethyl-propyl)-2-thiophen-2-ylmethyl-1H-benzoimidazole-5-carbonyl]-amino}-propionic acid]: 1140 nM; `C[C@@H]1CCCC[C@H]1n1c(Cc2cccs2)nc2cc(C(=O)NC(CC(=O)O)C3CCCCC3)ccc21` (single isomer, unassigned) [Example 463]: 2480 nM.
Next, `CCC(CC)n1c(Cc2ccco2)nc2cc(C(=O)NC(C)(CCSC)C(=O)O)ccc21` (centres unmarked) [Example 14, 2-{[1-(1-Ethyl-propyl)-2-furan-2-ylmethyl-1H-benzoimidazole-5-carbonyl]-amino}-2-methyl-4-methylsulfanyl-butyric acid]: 1340 nM; `C[C@@H]1CCCC[C@H]1n1c(Cc2cccs2)nc2cc(C(=O)NC(CC3CCCCCC3)C(=O)O)ccc21` (stereo partly drawn) [Example 40, 3-Cycloheptyl-2-{[1-((1R,2R)-2-methyl-cyclohexyl)-2-thiophen-2-ylmethyl-1H-benzoimidazole-5-carbonyl]-amino}-propionic acid]: 915 nM; `CCC(CC)n1c(Cc2cccs2)nc2cc(C(=O)N[C@@H](CC(C)C)C(=O)N3CC4CC3CN4CC)ccc21` (stereo partly drawn) [Example 347, 1-(1-Ethyl-propyl)-2-thiophen-2-ylmethyl-1H-benzoimidazole-5-carboxylic acid [(S)-1-(5-ethyl-2,5-diaza-bicyclo[2.2.1]heptane-2-carbonyl)-3-methyl-butyl]-amide]: 809 nM.
In the case of `CCC(CC)n1c(Cc2cccs2)nc2cc(C(=O)NC(CC)(C(=O)O)c3ccccc3)ccc21` (centres unmarked) [Example 7, 2-{[1-(1-Ethyl-propyl)-2-thiophen-2-ylmethyl-1H-benzoimidazole-5-carbonyl]-amino}-2-phenyl-butyric acid], the 50% effective concentration (EC50) is 44300 nM.
The figure for `CCC(CC)n1c(Cc2cccs2)nc2cc(C(=O)N[C@@H](CC(C)C)C(=O)N3CCN(c4ccccc4)CC3)ccc21` [Example 235, 1-(1-Ethyl-propyl)-2-thiophen-2-ylmethyl-1H-benzoimidazole-5-carboxylic acid [(S)-3-methyl-1-(4-phenyl-piperazine-1-carbonyl)-butyl]-amide] is 1300 nM; for `CCC(C)Cn1c(Cc2cccs2)nc2cc(C(=O)N[C@@H](CC3CCCCC3)C(=O)O)ccc21` (stereo partly drawn) [Example 145, (S)-3-Cyclohexyl-2-{[1-(2-methyl-butyl)-2-thiophen-2-ylmethyl-1H-benzoimidazole-5-carbonyl]-amino}-propionic acid] it is 18000 nM.
Consider `CCC(CC)n1c(Cc2cccs2)nc2cc(C(=O)N[C@@H](CC(C)C)C(=O)NCc3nnn[nH]3)ccc21` [Example 399, 1-(1-Ethyl-propyl)-2-thiophen-2-ylmethyl-1H-benzoimidazole-5-carboxylic acid {(S)-3-methyl-1-[(1H-tetrazol-5-ylmethyl)-carbamoyl]-butyl}-amide], for which the EC50 stood at 99 nM.
The figure for `CCC(CC)n1c(Cc2cccs2)nc2cc(C(=O)NC(CC3CCCC3)C(=O)O)ccc21` (centres unmarked) [Example 11, 3-Cyclopentyl-2-{[1-(1-ethyl-propyl)-2-thiophen-2-ylmethyl-1H-benzoimidazole-5-carbonyl]-amino}-propionic acid] is 65 nM; for `CCC(CC)n1c(Cc2cccs2)nc2cc(C(=O)N[C@@H](CC(C)C)C(=O)N(CCOC)CCOC)ccc21` [Example 363, 1-(1-Ethyl-propyl)-2-thiophen-2-ylmethyl-1H-benzoimidazole-5-carboxylic acid {(S)-1-[bis-(2-methoxy-ethyl)-carbamoyl]-3-methyl-butyl}-amide] it is 1720 nM; for `CCC(CC)n1c(Cc2cccs2)nc2cc(C(=O)N[C@@H](CC(C)C)C(=O)Nc3cccc(N4CCOCC4)c3)ccc21` [Example 333, 1-(1-Ethyl-propyl)-2-thiophen-2-ylmethyl-1H-benzoimidazole-5-carboxylic acid [(S)-3-methyl-1-(3-morpholin-4-yl-phenylcarbamoyl)-butyl]-amide] it is 27300 nM.
Regarding `CCC(CC)n1c(Cc2cccs2)nc2cc(C(=O)N[C@@H](CC(C)C)C(=O)N3CC[C@@H](N(C)C)C3)ccc21` [Example 260, 1-(1-Ethyl-propyl)-2-thiophen-2-ylmethyl-1H-benzoimidazole-5-carboxylic acid [(S)-1-((R)-3-dimethylamino-pyrrolidine-1-carbonyl)-3-methyl-butyl]-amide], the EC50 amounted to 170 nM.
The figure for `CCC(CC)n1c(Cc2cccs2)nc2cc(C(=O)N[C@@H](CC(C)C)C(=O)N3CCCC3)ccc21` [Example 379, 1-(1-Ethyl-propyl)-2-thiophen-2-ylmethyl-1H-benzoimidazole-5-carboxylic acid [(S)-3-methyl-1-(pyrrolidine-1-carbonyl)-butyl]-amide] is 1800 nM; for `CC(C)C[C@H](NC(=O)c1ccc2c(c1)nc(Cc1ccccc1)n2C1CCCCC1)C(=O)O` [Example 148, (S)-2-[(2-Benzyl-1-cyclohexyl-1H-benzoimidazole-5-carbonyl)-amino]-4-methyl-pentanoic acid] it is 15000 nM; for `CCC(CC)n1c(Cc2cccs2)nc2cc(C(=O)N[C@@H](CC(C)C)C(=O)NCCN(C)C)ccc21` [Example 267, 1-(1-Ethyl-propyl)-2-thiophen-2-ylmethyl-1H-benzoimidazole-5-carboxylic acid [(S)-1-(2-dimethylamino-ethylcarbamoyl)-3-methyl-butyl]-amide] it is 383 nM.
`CCCC[C@H](NC(=O)c1ccc2c(c1)nc(Cc1cccs1)n2C1CCCCC1C)C(=O)O` (single isomer, unassigned) [Example 423]: the EC50 worked out at 9730 nM.
Next, `CC1CCCCC1n1c(Cc2cccs2)nc2cc(C(=O)N[C@@H](CC3CCCCC3)C(=O)O)ccc21` (single isomer, unassigned) [Example 425]: 2680 nM; `CCCCC(NC(=O)c1ccc2c(c1)nc(Cc1cccs1)n2C(CC)CC)C(C)(C)C(=O)O` (centres unmarked) [Example 58, 3-{[1-(1-Ethyl-propyl)-2-thiophen-2-ylmethyl-1H-benzoimidazole-5-carbonyl]-amino}-2,2-dimethyl-heptanoic acid]: 172 nM.
Next, `CCC(CC)n1c(Cc2cccs2)nc2cc(C(=O)N[C@@H](CC(C)C)C(=O)NCCCN(C)C)ccc21` [Example 224, 1-(1-Ethyl-propyl)-2-thiophen-2-ylmethyl-1H-benzoimidazole-5-carboxylic acid [(S)-1-(3-dimethylamino-propylcarbamoyl)-3-methyl-butyl]-amide]: 300 nM; `CCC(CC)n1c(Cc2cccs2)nc2cc(C(=O)N[C@@H](CC(C)C)C(=O)Nc3ccc(F)cc3)ccc21` [Example 228, 1-(1-Ethyl-propyl)-2-thiophen-2-ylmethyl-1H-benzoimidazole-5-carboxylic acid [(S)-1-(4-fluoro-phenylcarbamoyl)-3-methyl-butyl]-amide]: 8500 nM.
For the molecule `CCC(CC)n1c(Cc2cccs2)nc2cc(C(=O)NC3(CO)CCCC3)ccc21` [Example 193, 1-(1-Ethyl-propyl)-2-thiophen-2-ylmethyl-1H-benzoimidazole-5-carboxylic acid (1-hydroxymethyl-cyclopentyl)-amide], the 50% effective concentration (EC50) worked out at 6220 nM.
